# Source: patent US11066421B1, “Synthetic cinchona alkaloids against cancer” (Ares Pharmaceuticals, LLC, priority 2021, dated 2021)
# What was measured:
# U87 human GBM cells = experiment: CB.17 SCID mouse xenograft model of human glioblastoma multiforme; type: in vivo; details: 5 days per week for 4 weeks
# Procedure: Cell Lines. Human brain tumor cell line U87 (ATCC HTB-14) was obtained from American Type Culture Collection (Rockville, Md.) and maintained as a continuous cell line in DMEM supplemented with 10% fetal calf serum (FCS), 4 mm glutamine, 100 units/ml penicillin G, and […] streptomycin sulfate. All of the tissue culture reagents were obtained from Life Technologies, Inc. Inc. (Gaithersburg, Md.).
# Mice. Female CB.17 SCID mice were obtained from Taconic (Germantown, N.Y.) and housed in a specific-pathogen-free room located in a secure indoor facility with controlled temperature, humidity, and noise levels. Mice were housed in micro-isolator cages and fed with autoclaved rodent chow. Water was also autoclaved and supplemented with trimethoprim/sulfomethoxazol 3 days a week. The animal protocol used in this study was approved by the local Institutional Animal Care and Use Committee (IACUC), and all of the animal care procedures conformed to the Guide for the Care and Use of Laboratory Animals (National Research Council, National Academy Press, Washington D.C. 1996).
# SCID Mouse Xenograft Model of Human Glioblastoma Multiforme (GBM). The predictive value of the mouse xenograft models for clinical effectiveness of anti-cancer drugs has been confirmed for several drugs (Richmond A, Su. Y. Mouse xenograft models vs GEM models for human cancer therapeutics. Dis Model Mech. 2008; 1(2-3):78-82. doi:10.1242/dmm.000976). CB.17 SCID mice (8 wk. old, female) were inoculated subcutaneously with 1×10^6 U87 human GBM cells (1×10^6/inoculum, volume: 200 μL) in the right hind leg, as described (R. K. Narla et al., 2001, Clin Cancer Res. 7:2124-33). Mice were treated daily with intraperitoneal injections of vehicle (50 μL DMSO) or AP-1 (125 μg˜5 mg/kg/day in 50 μL DMSO) according to a 5 days on 2 days off schedule for 4 consecutive weeks. Tumor growth was determined by the measurement of visible tumors with a caliper in three dimensions three days a week and expressed as tumor volume in cubic millimeters (mm^3). Tumor volumes were calculated using the formula for the volume of a prolate spheroid, V=4/3×3.14×length/2×width/2×depth/2.
# [1] = test system: mammary tumors of MMTV/neu transgenic mice; experiment: MMTV/neu transgenic mouse model of HER2+ breast cancer; type: in vivo; details: 9-week observation; AP-8 2 mg/kg i.p. twice daily; paclitaxel 6.7 mg/kg; gemcitabine 33.7 mg/kg
# Source text: The predictive value of genetically engineered mouse (GEM) models to predict the clinical effectiveness of anti-cancer drugs is well established (Richmond A, Su Y. Mouse xenograft models vs GEM models for human cancer therapeutics. Dis Model Mech. 2008; 1(2-3):78-82. doi:10.1241-2/dmm.0.000976). We used the transgenic mouse model of HER2+ chemotherapy-resistant breast cancer to examine the in vivo anti-cancer activity of AP-8. Overexpression of the wild type Neu in the mammary glands of transgenic mice induces metastatic breast cancer. Accordingly, in the MMTV/Neu transgenic strain, the wild-type neu is overexpressed in the mammary gland under the control of the MMTV long terminal repeat. This animal model has been used to analyze the efficacy of new therapeutic approaches to prevent or treat Her2/neu overexpressing malignancies (Uckun, Dibirdik). MMTV/Neu transgenic mice [FVB/N-TgN(MMTV/neu)202MUL; Jackson Laboratory, Bar Harbor, Me.] were bred to produce multiple litters in a controlled SPF environment (12 h light/12 h-dark photoperiod, 22±1° C., 60±10% relative humidity). All mice were housed in microisolator cages (Lab Products, Inc., Maywood, N.Y., USA) containing autoclaved bedding in a controlled specific pathogen-free (SPF) environment (12 h light/12 h-dark photoperiod, 22±1° C., 60±10% relative humidity). Animal studies were approved by the institutional Animal Care and Use Committee of Drug Discovery Enterprises and all animal care procedures conformed to the Guide for the Care and Use of Laboratory Animals of the National Research Council. The genotype of mice was confirmed by multiplex polymerase chain reaction (PCR) tests as previously reported (F. M. Uckun et al., 2007, Bioorganic Med. Chem. 15:800-14; I. Dibirdik et al., 2010, J Nanomed and Nanotechnol. 1:001-4).
# Neu transgenic mice carrying one or more tumors were randomly placed in the study. For the evaluation of tumor kinetics, tumor-bearing mice were randomly assigned to either vehicle control or treatment groups. Tumor growth was determined by the measurement of tumors with a caliper in three dimensions three days a week and expressed as tumor volume in cubic millimeters (mm^3). Tumor volumes were calculated using the formula for the volume of a prolate spheroid, V=4/3×3.14×length/2×width/2×depth/2. Due to the large heterogeneity in transgenic tumor volumes on day 0, tumor growth for each mouse was normalized to the starting volume for that particular tumor. Therefore, each mouse also served as its own control, and the tumor growth curves were generated to show the rate of change in tumor volumes.
# AP-8 (50 μg˜2 mg/kg in 50 μL DMSO as vehicle) (10 mice, 12 target mammary tumors, Initial average tumor volume=787±125 mm^3) was administered by twice daily intraperitoneal injections on 5 consecutive days per week. Paclitaxel (10 mice, 13 target mammary tumors, Initial average tumor volume=554±79 mm^3) was administered intraperitoneally on days 1, 3, and 5 of each week at a dose level of 6.7 mg/kg ([…]). Gemcitabine (13 mice, 18 target mammary tumors, Initial average tumor volume=549±60 mm^3) was administered intraperitoneally on days 1 and 8 every 4 weeks at a dose level of 33.7 mg/kg (˜1 g/m^2). Control mice (8 mice, 10 mammary tumors, Initial average tumor volume=293±61 mm^3) were treated by twice daily intraperitoneal injections of vehicle alone (50 μL DMSO) on 5 consecutive days per week. […]
smiles,measurement,setting,value
"C=CC1CN2CCC1CC2C(Oc1cc(OC(c2ccnc3ccccc23)C2CC3CCN2CC3C=C)nc(OC(c2ccnc3ccccc23)C2CC3CCN2CC3C=C)n1)c1ccnc2ccccc12 (centres unmarked) [AP-1, 2,4,6-Tri(9-O-cinchoninyl)pyrimidine]",tumor progression,U87 human GBM cells; 5 mg/kg/dose i.p. daily,significantly slowed down the tumor progression
same,average tumor size,"U87 human GBM cells; day 15, 5 mg/kg/day i.p.",4.1±1.1 mm^3
same,average tumor size,"U87 human GBM cells; day 30, 5 mg/kg/day i.p.",37.8±16.2 mm^3
same,tumor size,"U87 human GBM cells; day 44, 5 mg/kg/day i.p.",956.0±291.3 mm^3
"CCC1CN2CCC1CC2C(Oc1cc(OC(c2ccnc3ccc(OC)cc23)C2CC3CCN2CC3CC)nc(OC(c2ccnc3ccc(OC)cc23)C2CC3CCN2CC3CC)n1)c1ccnc2ccc(OC)cc12 (centres unmarked) [AP-8, 2,4,6-Tri (9-O-dihydroquinidinyl)pyrimidine]",tumor shrinkage and tumor growth,[1],"caused shrinkage of the tumor, completely arrested the tumor growth for 4 weeks, and markedly delayed the tumor progression between 4 weeks and 9 weeks"
